Reference: PMC9118553, “In Vivo Bioconcentration of 10 Anionic Surfactants in Rainbow Trout Explained by In Vitro Data on Partitioning and S9 Clearance” (Environmental Science & Technology, 2022)

Tests used:
[1] = set-up: method as in REACH dossier; details: method as noted in the cell (shake flask, solubility ratio, HPLC, BCFBAF, pH); ref REACH dossier; cited from earlier work
[2] = ref REACH dossier; cited from earlier work
carp = test system: carp; set-up: method as in REACH dossier; details: carp 28d pH7; ref REACH dossier; cited from earlier work
[3] = RT-S9 substrate depletion assay, individual compounds, with IVIVE; details: tested individually
Procedure: The in vitro intrinsic clearance by the S9 fraction of rainbow trout liver was measured for the same 11 anionic surfactants used in the BCF experiment as separate compounds. […] An established RT-S9 substrate depletion assay was employed,[25]−[27] predating the currently available OECD guideline 319B.[28] A single batch of the characterized liver homogenate material was prepared at the US EPA lab in Duluth and shipped on dry ice to the testing facilities at the University of Amsterdam. The test was conducted using the same method applied for a series of cationic surfactants in Droge et al.[29] and is summarized together with the in vitro–in vivo extrapolation in Text S4.
(§1) Text S4: Trout liver S9 parent depletion assay details and IVIVE
(§2) Liver tissue was separately pooled from the same five rainbow trout (three males/two females, ~300 g, liver weight ~3 g) used also for the RT-S9 study on a series of cationic surfactants (Droge et al., 2021b). The liver sample was homogenized in an appropriate buffer and then centrifuged to yield a 13,000 x g supernatant (the ‘S9 fraction’, lacking only mitochondrial fractions). No further refinement towards microsomal fractions was made to remove cytosolic and lysosomal components.
(§3) Upon arrival at the University of Amsterdam the liver
(§4) S9 material was stored in a -80 °C freezer until use.
(§5) Individual chemicals were first dissolved in methanol and then further diluted to 20% methanol in 100 mM phosphate buffer to make a ~20 µM stock solution, which was then spiked as 10 µL in 190 µL of active S9 mixture. The active S9 mixture consisted of 100 mM potassium phosphate-buffered saline (PPBS) adjusted to pH 7.8, 2 mM β-NADPH, 2 mM UDPGA, 0.1 mM PAPS, 5 mM GSH, 10 μg/mL alamethicin (in methanol carrier; 0.1% v/v final concentration), and 2 mg/mL S9 protein. The substrate depletion assays were performed using the multiple vial method described in OECD TG 319B, employing two or three separately spiked series.
(§6) Reactions were performed at 11 °C in a temperature-controlled water bath (B. Braun Frigomix-R) that was placed on a 2 cm travel path shaker (Gerhardt LS 10) set at 45 rpm. As a positive […]
(§7) alkylsulfonates, no additional assays with inactivated RT-S9 were performed.
(§8) Reactions were quenched with 600 µL ice-cold acetonitrile. After 10 s vortexing and 5 min centrifugation (Hermle Z300, 2500 rpm), 100 µL clear supernatant was transferred into 300 µL glass inserts placed in new autosampler vials, and mixed with 100 µL pure water. Concentrations were measured using a Prominence UFLC-XR system (Shimadzu) coupled to a tandem mass spectrometer (QTRAP 4000, Applied Biosystems) with a Turbo Ion spray source operated at 400 ◦C. For chromatographic separations, a 100 x 2.1mm x 2.7 µm Supelco Ascentis Express column was used (40 °C), with eluent A: pure water with 2 mM ammonium acetate, and eluent […]
(§9) prepared in 50% acetonitrile/water, calibration curves used covered at least four points in a log-linear range. The lowest external standard to fit the log-linear calibration curve served as limit of quantification, requiring a peak of at least 10x the average noise.
(§10) Each vial was treated as an independent vial with recorded exposure time. Log-transformed concentration data of the parent compound were plotted against exposure time (min) and analysed using Graphpad PRISM 8. […]
(§11) the slope (min-1) was multiplied by -2.3 and by 60 (min h-1) to obtain a first order depletion rate […]
(§12) Extrapolation of kdep to whole body rate biotransformation rate constant (kB-S9) The basic approach to extrapolate first order depletion rate constants (k dep) to whole body

[4] = RT-S9 substrate depletion assay, mixture of 9 anionic surfactants (AnionMixture); details: tested in a mixture
Procedure: An established RT-S9 substrate depletion assay was employed,[25]−[27] predating the currently available OECD guideline 319B.[28] A single batch of the characterized liver homogenate material was prepared at the US EPA lab in Duluth and shipped on dry ice to the testing facilities at the University of Amsterdam. The test was conducted using the same method applied for a series of cationic surfactants in Droge et al.[29] and is summarized together with the in vitro–in vivo extrapolation in Text S4.
as §1, §2, §3, §4, §5, §6, §7, §8, §9, §10, §11, §12

[5] = marked * = measured; used for IVIVE; same values as Table 3; cited from earlier work
rainbow trout = details: rainbow trout, similar water hardness; cited from earlier work
Danio rerio = details: in vivo, pH 7.6; cited from earlier work
several species = test system: several species; set-up: method as in doi:10.1186/s12302-020-00435-1; details: LSC of radiolabeled compound, upper boundary; cited from earlier work
[6] = set-up: method as in REACH dossier; details: experimental, several studies; ref REACH dossier; cited from earlier work
Cyprinus carpio = details: in vivo; cited from earlier work

Structure (SMILES) | LogKow [1] | Degradation information ~28d-sludge test (% degradable) [2] | further results
CCCCCCCCCCCCCCCCCCOP(=O)([O-])[O-].[K+].[K+] [1-Octadecanol, phosphate, potassium salt] | 8.556 | 0% | –
CC(CC(=O)O)CC(C)(C)C (stereo not shown) [3,5,5-trimethylhexanoic acid] | – | 96% | BCF (carp): 1 to 7 L/kg
CCCCCCCC(C=O)NCCCCCC(=O)O (stereo not shown) [6-[(1-formyloctyl)amino]hexanoic acid] | 2.47 | 98% | –
CCCCC(CC)COP(=O)(O)OCC(CC)CCCC (stereo not shown) [BEHP, bis(2-ethylhexyl)phosphate] | – | – | CLint,S9 [3]: n.s.; Slope of depletion curve (log concentration vs time) ([3]; 2 mg/mL S9 protein, 11 °C): -0.0001 min-1; Slope of depletion curve (log concentration vs time) [4]: -0.0003 min-1; log DMW, membrane-water distribution ratio [5]: 3.81
CCCCCCCCCC(C)c1ccc(S(=O)(=O)O)cc1 (stereo not shown) [C11-2-LAS, reference compound] | – | – | BCF (rainbow trout): 6 L kg^–1
CCCCCCCCCCCC(=O)O [C11CO2] | – | – | BCF (Danio rerio): 255 L/kg; Exp BCF (Danio rerio): 255
CCCCCCCCCCCCOS(=O)(=O)[O-].[Na+] [C12SO4, sodium dodecylsulfate] | – | 94-97% | BCF (several species): 1–7.15 L kg^–1; BCF [6]: 1-10
CCCCCCCCCCCCCCOS(=O)(=O)O [C14SO4] | – | – | BCF (Cyprinus carpio): 11 L kg^–1
CCCCC(CC)COP(=O)(O)O (stereo not shown) [[(2-ethylhexyl)oxy]phosphonic acid] | < 3 | 26-78% | –
CCCCCCC(O)CCCCCCCCCCC(=O)[O-].CCCCCCCCCCCCCCCCCC(=O)[O-].[Li+].[Li+] (stereo not shown) [dilithium(1+) ion 12-hydroxyoctadecanoate octadecanoate] | – | 74-97% | –
CCCCCCC(O)CCCCCCCCCCC(=O)[O-].[Li+] (stereo not shown) [lithium(1+) ion 12-hydroxyoctadecanoate] | – | 74-97% | –
CCCCCCCCC(=O)O [nonanoic acid] | 3.42 | 68 -75% | –
CCCCCCCCP(=O)(O)O [octylphosphonic acid] | 2.7 | 65-88% | –
CCCCC(CC)COC(=O)CC(C(=O)OCC(CC)CCCC)S(=O)(=O)[O-].[K+] (stereo not shown) [potassium 1,4-bis[(2-ethylhexyl)oxy]-1,4-dioxobutane-2-sulfonate] | 2.0 | 83.5-100% | –
CCCCCCCCCCCCOP(=O)([O-])O.[K+] [potassium dodecyl hydrogen phosphate] | 2.74 | 4-63% | –
CC(C)CP(=S)([S-])CC(C)C.[Na+] [sodium diisobutylphosphinodithioate] | -1.64 | 78,8% | –
